Results taken from patent US12478640B2, “Inhalation of nitric oxide for treating respiratory diseases” (BEYOND AIR LTD, priority 2012, dated 2025).
Read-outs that look alike come from different tables or passages of the source.

Tests used:
[1] = system: bovine respiratory disease; details: intermittent gNO inhalation; cattle; cited from earlier work
[2] = phase I safety study: plasma angiopoietins Ang-1 and Ang-2; type: in vivo, human; details: 160 ppm gNO inhalation vs baseline
Source text: (§1) Cohort: 10 healthy adult volunteer subjects (5 males, 5 females), aged 20 to 62 years, were enrolled in the study after screening their medical history, a physical examination, pulmonary function tests and blood values. Exclusion criteria included individuals less than 19 years of age, pregnant females and unwilling to practice birth control during the study, diagnosed with pulmonary disease, epistaxis, hemoptysis, methemoglobinemia, organ transplant recipient or receiving antibiotic therapy.
(§2) Regimen and post-treatment: After obtaining informed consent, treatment was initiated within 5 days of enrollment. Subjects were housed in a hospital ward and received 160 ppm gNO for 30 minutes every four hours (Q4h), five times a day, for five consecutive days by inhalation. Subjects returned for follow-up evaluations 3, 7 and 21 days after the final gNO administration. Subject safety was determined by monitoring vital signs, methemoglobin levels, lung function, blood chemistry, hematology, prothrombin time, inflammatory cytokine/chemokines levels and endothelial activation. These parameters were compared to baseline and at various time-points during and after gNO administration.
Hematological assessment included a complete blood count and differentials (hemoglobin, hematocrit, red blood cell count, white blood cell count, white blood cell differential, and platelet count) were obtained in order to monitor blood chemistry, hematology and inflammation measurements. The blood chemistry profile included serum creatinine, and liver function tests such as aspartate aminotransferase (AST) serum glutamic oxaloacetic transaminase (SGOT), alkaline phosphatase, and gamma-glutamyl transferase (GGT). The effect of gNO on coagulation was determined by the prothrombin time (PT) and its derived measures of prothrombin ratio (PR) and international normalized ratio (INR). […] Plasma cytokine levels were assessed using the human inflammation cytokine bead array kit (BD Bioscience, Canada). Plasma levels of angiopoietin Ang-1 and Ang-2 were determined by ELISA (R&D Systems, USA). […]

[3] = phase I safety study: oxygen saturation (SpO2) by pulse oximeter; type: in vivo, human
Source text: as §1
(§3) Regimen and post-treatment: After obtaining informed consent, treatment was initiated within 5 days of enrollment. […] Subject safety was determined by monitoring vital signs, methemoglobin levels, lung function, blood chemistry, hematology, prothrombin time, inflammatory cytokine/chemokines levels and endothelial activation. […]
(§4) General medical examinations were performed by a pulmonary physician on screening and on days 8, 12 and 26 to obtain oxygenation and vital sign measurements. […] Oxygenation was measured with a pulse oximeter (Rad 57, Masimo Corporation, USA) which was used according to manufacturer's guidelines to measure functional oxygen saturation of arterial hemoglobin (SPO2) and heart rate. These parameters were measured continuously during every gNO administration and for 3.5 hours after the first treatment of the day. […]

[4] = system: variety of microbes; details: 200 ppm gNO, cited from earlier work
[5] = system: P. aeruginosa; details: solid media, cited from earlier work
[6] = system: influenza A/victoria/H3N2; details: 160 ppm gNO, cited from earlier work
[7] = phase I safety study: methemoglobin (SpMet) by pulse oximeter; type: in vivo, human
Source text: as §1, §2
The levels of gNO, NO2, O2 and methemoglobin were monitored during the administration of gNO. The target gas mixture was 160 ppm gNO with a nitrogen dioxide (NO2) level of less than 5 ppm and an oxygen (O2) level ranging from 21% to 25%. Inspiratory NO, NO2 and O2 levels were continuously monitored by sampling from the mouthpiece sample port located about 6 millimeters from the mouth of the subject with an AeroNOx (Pulmonox, AB, Canada) NO, NO2 and O2 electrochemical analyzer. Delivery safety was determined by the number of occasions that NO2 exceeded 5 ppm, gNO exceeding 10% variation and O2 dropping below 20% during gNO administration. A commercially available noninvasive pulse oximeter (Rad 57, Masimo Corporation, USA) was used to measure saturation levels at the periphery of methemoglobin (SpMet).
These parameters were measured continuously during every gNO administration course and for 3.5 hours after the first treatment of the day. Daily serum samples were collected and frozen at −80° C. and the serum […] level was measured using the Griess reagent.

[8] = gNO concentrations below 200 ppm; 6 hours/day for 28 days; rats; cited from earlier work
[9] = phase I safety study in healthy adults: adverse events and vital signs; type: in vivo, human; details: 160 ppm gNO 30 min, 5 times a day, 5 days
Source text: as §1, §3, §4

[10] = healthy humans, cited from earlier work
[11] = system: highly pathogenic Avian Influenza H7N3; details: cited from earlier work
[12] = phase I safety study: pulmonary function tests; type: in vivo, human
Source text: as §1, §2
Subjects underwent full pulmonary function tests (PFT), including lung diffusing capacity (DLCO) by a trained technician utilizing a calibrated pulmonary function system (Jaeger MasterScreen, VIASYS Healthcare, USA) on screening and days 2, 8, 12 and 26. Spirometry test (Microloop by Micro Medical, England) was performed on days 1, 3 and 4. Effect of gNO on lung function and DLCO was determined by changes from baseline, treatment days and follow up days.

[13] = cited from earlier work
[14] = system: S. aureus; details: solid media, cited from earlier work
[15] = system: Pseudomonas aeruginosa pneumonia; details: 160 ppm gNO, intermittent 30 minute exposures; rat; cited from earlier work
[16] = system: chronic, non-healing wound; details: topical 200 ppm gNO; within the first three days; cited from earlier work
[17] = system: five planktonic species of methicillin resistant S. aureus (MRSA); details: 1,600 ppm hours of gNO; all five strains; cited from earlier work
[18] = phase I safety study: plasma cytokines, cytometric bead array; type: in vivo, human; details: 160 ppm gNO inhalation vs baseline
Source text: as §1, §2
Hematological assessment included a complete blood count and differentials (hemoglobin, hematocrit, red blood cell count, white blood cell count, white blood cell differential, and platelet count) were obtained in order to monitor blood chemistry, hematology and inflammation measurements. The blood chemistry profile included serum creatinine, and liver function tests such as aspartate aminotransferase (AST) serum glutamic oxaloacetic transaminase (SGOT), alkaline phosphatase, and gamma-glutamyl transferase (GGT). The effect of gNO on coagulation was determined by the prothrombin time (PT) and its derived measures of prothrombin ratio (PR) and international normalized ratio (INR). Heparinized plasma was collected at baseline and on days 1, 2, 4, and 5 of gNO administration, and on follow-up days 3, 7 and 21 and frozen at −80° C. Plasma cytokine levels were assessed using the human inflammation cytokine bead array kit (BD Bioscience, Canada). Plasma levels of angiopoietin Ang-1 and Ang-2 were determined by ELISA (R&D Systems, USA).
FIGS. 6A-F present blood levels of various cytokines before and after inhalation of 160 ppm gaseous nitric oxide by 10 healthy human individuals, as measured from blood samples collected within 7 days prior to gNO administration, each day during the treatment and 8, 12 and 26 days thereafter, wherein FIG. 6A presents the plasma levels of tumor necrosis factor (TNF)α, interleukin (IL)-1β data is presented in FIG. 6B, IL-6 in FIG. 6C, IL-8 in FIG. 6D, IL-10 in FIG. 6E and IL-12p70 in FIG. 6F, as determined by a cytometric bead array while statistical differences are compared by repeated measures ANOVA with Bonferroni post test for parametric data (IL-6, IL-8, IL-10, IL-12p70), or Friedman test with Dunn's post test for non-parametric data (TNF and IL-1b).

[19] = gNO greater than 120 ppm, vs medical air
[20] = during the course of the study vs baseline

## [N]=O [gNO, nitric oxide]
[1]
  clinical symptoms of bovine respiratory disease: decrease the clinical symptoms
[2]
  Ang-2/Ang-1 ratio: not affected
  plasma Ang-1: unaffected
  plasma Ang-2: not affected
[3]; 160 ppm gNO, not significant statistically nor clinically
  SpO2 change between pretreatment and post treatment: decreased slightly
[3]; during or after 160 ppm gNO administration
  hypoxemia (less than 85% SpO2): No sudden incidences of hypoxemia
[4]; all microorganisms tested
  bactericidal effect: complete bactericidal effect
[4]; every bacteria challenged
  reduction in CFU/mL: ≥ 3 log10
[5]; 50-160 ppm gNO
  survival (downward bactericidal trend): 5-10%
[5]; [19]
  reduction of colony formation: greater than 90%
[6]; MDCK cells
  infectivity of virions: reducing the infectivity
[6]; one 30 minute dose vs three 30 minute treatments Q4h
  anti-viral effect, intermittent vs single exposure: more evident in the intermittent form of exposure
[7]; 3, 7 and 21 days after final exposure
  follow-up SpMet: did not show any residual increase in SpMet
[7]; 160 ppm gNO 30 min, 5 times a day, 5 days
  all 930 recorded methemoglobin percent levels (SpMet): < 5%
[7]; 160 ppm gNO 30 min, p<0.001
  SpMet increase between pretreatment and post treatment: about 1%
[7]; after 160 ppm gNO 30 min, prior to next administration
  time for SpMet to return to baseline: 3.5 h
[7]; at the end of the 30 minutes treatment, 160 ppm gNO
  highest SpMet: 2.5%
[7]; five daily treatments for five consecutive days
  accumulation of SpMet with repeated treatments: no accumulative or lingering effect
[7]; general statement referring to the Examples
  SpMet level of subjects undergoing the method: ≤ 1%
[7]; single 30 minutes treatment course, 160 ppm gNO, baseline 0.16 percent
  average increase of SpMet: 0.9%
[8]
  deaths: No deaths occurred
[9]; 10 healthy adults, 250 administrations
  tolerability of treatments: well tolerated
[9]; arm bruising from blood draws (1), numbing of tongue (2)
  minor adverse events reported: Three minor adverse events
[10]; inhalation of 128 ppm for 3 hours
  MetHb level: > 5%
[10]; inhalation of 512 ppm for 55 minutes
  MetHb level: > 5%
[11]
  infectivity of virions: reducing the infectivity
[12]; during and after 160 ppm gNO treatments
  pulmonary function tests: did not reveal any abnormalities
[12]; [20]
  FEV1: did not differ from baseline
  maximum mid-expiratory flow (MMEF): did not differ from baseline
[13]; 300 ppm gNO, first 1-2 days, group of 10 rats
  mortality: Six of the animals treated with 300 ppm gNO died
[13]; 400 ppm gNO, first day of exposure, groups of 10 rats
  mortality: all of the animals died
[13]; 500 ppm gNO, first day of exposure, groups of 10 rats
  mortality: all of the animals died
[14]; 50-160 ppm gNO
  survival (downward bactericidal trend): 5-10%
[14]; [19]
  reduction of colony formation: greater than 90%
[15]
  leukocyte infiltration: effective to reduce
  pulmonary bioburden: effective to reduce
[16]
  biofilm of the wound: no longer visibly present
[17]
  population of planktonic MRSA strains: reduction in the population
[18]
  plasma IL-1b level: unaffected
  plasma IL-6 level: unaffected
  plasma IL-8 level: unaffected
  plasma IL-10 level: unaffected
  plasma IL-12p70 level: unaffected
  plasma TNF level: unaffected
